Numbered stars: 1 amine (or outer) side, 2 acyl side, 3 side chain; on linkers, the order of the positions; unused ones are H or OH. Square brackets hold non-standard residues; d marks the D form. Peptide text beside a SMILES is read from it. N((CH2)3OiPr)Gly = CC(C)OCCCNCC(=O)O; X1 = CC(c1ccccc1)N(CC(=O)[*:2])[*:1]; Nleu = CC(C)CNCC(=O)O; Nlys = NCCCCNCC(=O)O; Nme = COCCNCC(=O)O
Key:
[1] = Stability in human plasma (HPLC); assay type: in vitro ADME; conditions: 37° C.
Protocol: (§1) HPLC Analysis. RP-HPLC was conducted on an LC-20A liquid chromatographic system (Shimadzu, Japan). In detail, the HPLC system consisted of a Shimadzu LC-20AD solvent delivery pump, a SIL-20A auto-sampler, and a Shimadzu SPD-M20A UV/Vis detector. The TRBP-6 peptoid was analyzed using a Phenomenex® HPLC C18 column (250×4.6 mm, 5 μm) at room temperature. The mobile phase was composed of solvent A (0.1% TFA in water) and solvent B (0.1% TFA in acetonitrile, TFA: trifluoroacetic acid). An aliquot of 10 μl of TRBP-6 peptoid solution (350 μg/ml in ACN:H2O, 1:1) was injected into HPLC system. An isocratic method with flow rate of 1 ml/min was applied in 30% B for 15 min for TRBP-6. The detection wavelength was set to 220 nm. The data was acquired and processed with LabSolutions version 5.92. HPLC chromatograms for TRBP-6 are shown in FIG. 10, namely (A) PDA Chromatogram, and (B) PDA Spectrum. FIG. 10(A) is a RP-HPLC chromatogram of TRBP-6 (retention time tR=4.904 min) obtained by above HPLC method to illustrate the purity of the synthesized TRBP-6. FIG. 10(B) is a plot of UV absorbance spectrum of TRBP-6 obtained from injecting TRBP-6 into the HPLC column to show the wavelength of maximum UV absorbance of TRBP-6 (λmax=216 nm). Stability in PBS pH 7.4.
TRBP-6 peptoid solution with a concentration of 5 mg/ml in PBS was diluted to 1.4 mg/ml by human plasma. After incubation at 37° C. in human plasma for 0, 1, 3, 6, 9 and 24 h, 50 μl of the mixture was quenched with 150 μl of cold acetonitrile and centrifuged at […]×20 min. The supernatant (100 μl) was detected by HPLC. The assay was performed in triplicates.

[2] = test system: transferrin receptor positive HeLa cells; experiment: Validation of on-bead two-color binding with resynthesized compound on TentaGel beads; assay type: cell-based, human; conditions: 1.0 hour at room temperature, fluorescence microscope
Protocol: The on-bead two-color combinatorial cell-screening was validated by resynthesizing the compounds on tentagel beads and incubating them with transferrin receptor positive HeLa cells and transferrin receptor negative Hela cells separately as well as a mixture of these cells. The beads specifically bound with the transferrin receptor positive HeLa cells. Results are shown in FIG. 3, with the cells shown on the left column and the beads containing TRBP6 after incubation with the cells shown in the right column.
Nearly 50,000 peptoid library beads were washed two times in DMEM medium containing 10% FBS (media) and then incubated in 1.0 ml (DMEM+10% FBS) for 1.0 hour in a polypropylene tube. Transferrin receptor positive HeLa cells and transferrin receptor negative HeLa cells were removed from culture plates with GIBCO enzyme free cell dissociation buffer 2.0 ml per plate for 20 minutes at 37° C. Cells were washed and suspended in DMEM+10% FBS media. Cells were counted and distributed in 1.5 ml microcentrifuge tubes with 1.0×10^6 cells in 1.0 ml of media. Then the cell labeling procedure was conducted as follows: 1.0 μl each of Qtracker reagent A and B were mixed in a 1.5 ml microcentrifuged tubes and incubated for 5.0 minutes at room temperature. […] Labeled cells were visualized with long-pass filter of BX-51 fluorescence microscope (Olympus, PA) with a color camera. […]

[3] = In vivo biodistribution study of Cy5.5-labeled peptoids in CD-1 mice (IVIS imaging)
Protocol: The activity of these compounds to deliver Cy5.5 fluorescent dye into the brains of mice was investigated. […] The Cy5.5 labeled peptoids or Cy5.5-Ang peptide were injected intravenously to CD-1 mice (25 nmol/mouse, n=4 per compound) and imaged using IVIS imager. The mice were sacrificed at 30 minutes, the heart was perfused with 10 mL of PBS, blood and organs were collected for ex vivo imaging.
Biodistribution of Cy5.5-labeled peptoids and control Cy5.5-Ang was performed on healthy female CD-1 mice (6-8 weeks old, n=4 per group). Fluorescently labeled peptoids and Cy5.5-Ang were prepared in 100 μl saline (25 nmol of Cy5.5-TRBP in 100 μl saline per mouse) were injected intravenously via tail vein into mice. The whole body imaging of fluorescence signal was measured at 5, 15 and 30 min using the IVIS Spectrum in vivo imaging system (PerkinElmer). At 30 min, mice were euthanized and brain was perfused with 10 mL of 10% heparinized PBS at […] flow rate via left ventricle of mice. A small incision to the right atrium was made using iris scissors before perfusion. After brain perfusion, the vital organs (brain, heart, lung, liver, spleen also blood and plasma) were collected for ex vivo imaging. The fluorescence intensity was measured at wavelength with an excitation of 660 nm and maximum emission at 710 nm. The organ region of interest (ROI) was measured and analyzed using Living image software. Data of the experiments were expressed as mean±SD and analyzed by One-way ANOVA with Dunnett's multiple comparison test. The statistical analysis was done in Graphpad Prism (Graphpad Inc., version 7.04), the results were considered statistically significant if p<0.05.

[4] = Solubility in water by titration; assay type: physicochemical; conditions: deionised water; DI water
Protocol: Solubility of TRBP-6 peptoid was determined by titration. Briefly, a precise amount (5 mg) of TRBP-6 was measured in a transparent 1.5 ml Eppendorf tube. DI water was added dropwise (˜5 μl/drop) into the tube until the solids were completely dissolved and the solution was clear. Solubility was calculated as the ratio of quantity of peptoid and the total volume of DI water. […] The solubility of TRBP6 in water is shown below.

[5] = target: T1, transferrin receptor (Homo sapiens, UniProt P02786); experiment: In vitro pull-down assay with compound-conjugated beads and western blot; assay type: binding; conditions: lysates of transferrin receptor positive or negative HeLa cells, compound-conjugated beads, 4° C. overnight, western blot anti-hTfR
T1 construct: Cell lysates from HeLa cells with transferrin receptor expression or transferrin receptor knockdown were extracted using RIPA buffer; endogenous in cells; host or cells: HeLa (ATCC)
Protocol: The binding of three exemplary compounds to the transferrin receptor was confirmed in a pull-down assay. Cell lysates from transferrin receptor positive or negative HeLa cells were extracted using RIPA buffer, and subsequently incubated with TRBP3, TRBP5, or TRBP6 conjugated beads at 4° C. overnight. The beads were then washed with RIPA buffer for 3 times, and the binding proteins were eluted with 1% SDS. The yielded lysates were then applied onto 10% SDS-PAGE gel and subjected to western blotting analysis with antibody against transferrin receptor.
Cell lysates from HeLa cells with transferrin receptor expression or transferrin receptor knockdown were extracted using RIPA buffer (Alfa Aesar) supplemented with protease inhibitors (Roche), and subsequently incubated with TRBP6, TRBP3, and TRBP5 conjugated beads at 4° C. overnight. The beads were then washed with RIPA buffer for 3 times, and the binding proteins were eluted with 1% SDS at 95° C. for 5 mins. The yielded lysates were then mixed with 4× Laemmli Sample Buffer (loading buffer) (Bio-Rad). […]
Cells were lysed in RIPA buffer (1% NP-40, 0.5% sodium deoxycholate, 0.1% SDS in PBS). […] Protein concentration was determined by Bio-Rad DC protein assay (Bio-Rad). […] Signals of targeted proteins were detected by the Immun-Star HRP peroxide Luminol/Enhancer (Bio-Rad) and recorded on ChemiDoc Touch Imaging System (Bio-Rad). […]

[6] = Stability in PBS pH 7.4 (HPLC); assay type: physicochemical; conditions: 37° C., 350 μg/ml
Protocol: as §1
TRBP-6 peptoid was diluted with PBS pH 7.4 to 350 μg/ml. The solution was incubated in the water bath at 37° C. with gentle shaking. The aliquots (50 μl) were withdrawn from the TRBP-6 solution at different time intervals (0, 1, 3, 6, 9, 24 h). At each time point, 10 μl of solution was injected into HPLC for analysis. To examine the reproducibility, the experiments were carried out in triplicate.

T1 sequence (P02786 whole entry): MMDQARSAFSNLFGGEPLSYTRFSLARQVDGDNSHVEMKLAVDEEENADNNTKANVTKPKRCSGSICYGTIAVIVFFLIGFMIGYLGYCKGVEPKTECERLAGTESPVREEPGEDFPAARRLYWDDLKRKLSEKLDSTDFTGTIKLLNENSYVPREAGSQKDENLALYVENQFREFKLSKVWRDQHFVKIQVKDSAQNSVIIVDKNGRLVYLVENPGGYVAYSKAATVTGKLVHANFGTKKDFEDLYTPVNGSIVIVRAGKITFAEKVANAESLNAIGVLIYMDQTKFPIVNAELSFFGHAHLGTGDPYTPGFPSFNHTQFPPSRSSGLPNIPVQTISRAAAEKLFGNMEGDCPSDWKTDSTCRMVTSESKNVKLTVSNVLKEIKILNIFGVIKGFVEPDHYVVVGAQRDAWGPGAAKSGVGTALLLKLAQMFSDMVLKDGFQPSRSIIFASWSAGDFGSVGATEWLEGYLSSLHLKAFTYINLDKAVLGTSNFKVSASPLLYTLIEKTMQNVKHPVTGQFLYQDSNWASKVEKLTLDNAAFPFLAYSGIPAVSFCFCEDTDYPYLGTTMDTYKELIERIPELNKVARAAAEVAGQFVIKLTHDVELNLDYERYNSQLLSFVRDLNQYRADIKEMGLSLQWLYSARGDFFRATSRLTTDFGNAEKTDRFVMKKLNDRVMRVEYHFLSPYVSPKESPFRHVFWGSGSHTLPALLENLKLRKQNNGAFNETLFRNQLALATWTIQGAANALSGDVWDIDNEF

- TRBP-6 amount remains (%) in human plasma ([1]; 0 h, 1.4 mg/ml): 100.0 ± 1.2%
- stability (overall statement) ([1]; PBS pH 7.4 and human plasma, up to 24 h): excellent stability
- remaining at 1 h, 1.4 mg/ml ([1]; human, human plasma, 1 h, 1.4 mg/ml, read-out: TRBP-6 amount remains (%) in human plasma): 99.5 ± 3.5%
- remaining at 3 h, 1.4 mg/ml ([1]; human, human plasma, 3 h, 1.4 mg/ml, read-out: TRBP-6 amount remains (%) in human plasma): 94 ± 2.1%
- remaining at 6 h, 1.4 mg/ml ([1]; human, human plasma, 6 h, 1.4 mg/ml, read-out: TRBP-6 amount remains (%) in human plasma): 93 ± 5.3%
- remaining at 9 h, 1.4 mg/ml ([1]; human, human plasma, 9 h, 1.4 mg/ml, read-out: TRBP-6 amount remains (%) in human plasma): 92 ± 2.9%
- remaining at 24 h, 1.4 mg/ml ([1]; human, human plasma, 24 h, 1.4 mg/ml, read-out: TRBP-6 amount remains (%) in human plasma): 90.3 ± 4.7%
- solubility [4]: > 496 mg/mL
- binding to the transferrin receptor in pull-down assay [5]: confirmed
- TRBP-6 amount remains (%) in PBS pH 7.4 ([6]; 0 h): 100.0 ± 2.4%
- TRBP-6 amount remains (%) in PBS pH 7.4 ([6]; 1 h): 98.9 ± 6.5%
- TRBP-6 amount remains (%) in PBS pH 7.4 ([6]; 3 h): 95.5 ± 3.3%
- TRBP-6 amount remains (%) in PBS pH 7.4 ([6]; 6 h): 94.6 ± 2.3%
- TRBP-6 amount remains (%) in PBS pH 7.4 ([6]; 9 h): 92.7 ± 0.2%
- TRBP-6 amount remains (%) in PBS pH 7.4 ([6]; 24 h): 91.3 ± 3.8%
SMILES: COCCN(CC(=O)NC(CCCCN)C(=O)NC(CCSC)C(N)=O)C(=O)CN(CC(C)C)C(=O)CN(C(=O)CN(CCCCN)C(=O)CN(CCCOC(C)C)C(=O)CNCCCCN)C(C)c1ccccc1 (stereo not shown) [TRBP6] (H-[Nlys][N((CH2)3OiPr)Gly][Nlys][X1][Nleu][Nme]KM-NH2; configuration not given here)
- binding of beads to transferrin receptor positive (red) vs negative (green) HeLa cells [2]: only showed binding with red cells but not with green cells
- efficacy of brain delivery compared with other compounds including Angiopep-2 (Ang) peptide ([3]; 25 nmol/mouse intravenously): much higher than other compounds
- delivery of Cy5.5 into the brain ([3]; 25 nmol/mouse intravenously, imaging 5, 15, 30 min and ex vivo after perfusion): effectively delivered Cy5.5 into the brain
- efficiency in brain delivery compared with other compounds including Ang peptide ([3]; 30 minutes after injection, 25 nmol/mouse i.v.): superior efficiency than other compounds
